Laboratory results published in patent US20100249234A1, “METHODS OF REDUCING VIRULENCE IN BACTERIA” (UWM RESEARCH FOUNDATION, INC., priority 2007, published 2010).

Tested on: hrpA promoter
Test: hrpA promoter activity, GFP reporter plasmid phrpA, flow cytometry (FACS)
Type: cell-based, Dickeya dadantii 3937 (Ech3937)
Settings: for expression of hrpA, GFP intensity (Mean Fluorescence Intensity), Ech3937 carrying phrpA: MM + 0.1 mM compound
Protocol: FACS analysis of promoter activity of dspE, hrpA, hrpL, hrpN, and hrpS was carried out as described (Peng et al., 2006). Briefly, the wild-type Ech3937 and the mutant strains carrying the promoter reporter plasmid were grown on LB broth at 28° C. overnight and transferred to appropriate media. For FACS analysis, samples were collected by centrifugation, washed with 1× phosphate buffer saline (PBS) at 13,000 rpm for 1 min, and re-suspended in 1×PBS to ca 10^6 CFU/ml prior to being run in a FACS Calibur flow cytometer (BD Biosciences, CA). Three replicates were performed for each treatment.
To identify potential compounds that repress activation of T3SS, analogs and isomers of TCA and intermediates of salicylic acid and phenypropanoid biosynthesis pathways in plants were further screened for their effect on Ech3937 hrpA expression by flow cytometry (Table 9). A green fluorescent protein (GFP) reporter plasmid phrpA (pProbe-AT derivative with PCR fragment containing hrpA promoter region) was constructed, resulting in a transcriptional fusion of hrpA promoter with GFP gene. Bacterial cells containing phrpA plasmid were grown in MM supplemented with 0.1 mM of each compound. GFP intensity, which is a measurement of hrpA promoter activity, was measured by flow cytometry.

| SMILES | expression of hrpA, GFP intensity (Mean Fluorescence Intensity), Ech3937 carrying phrpA (6 h (Table 9)) | expression of hrpA, GFP intensity (Mean Fluorescence Intensity), Ech3937 carrying phrpA (12 h (Table 9)) | expression of hrpA, GFP intensity (Mean Fluorescence Intensity), Ech3937 carrying phrpA (24 h (Table 9)) | effect on expression of hrpA (screen result) (MM + 0.1 mM compound (Table 9)) |
| --- | --- | --- | --- | --- |
| O=C(O)[C@@H]1C[C@H]1c1ccccc1 (relative stereo) [trans-2-Phenylcyclopropane-1-carboxylic acid] | 7.2 ± 0.1 | 67.0 ± 18.4 | 84.0 ± 14.3 | – |
| O=C(O)C=Cc1ccccc1Cl [2-Chlorocinnamic acid] | 25.7 ± 0.2 | 166.2 ± 17.8 | 319.8 ± 48.3 | – |
| Cc1ccccc1C=CC(=O)O [2-Methylcinnamic acid] | 22.8 ± 0.6 | 157.2 ± 11.7 | 342.5 ± 16.6 | – |
| OCC=Cc1ccccc1 [Cinnamyl alcohol] | 6.3 ± 0.1 | 27.8 ± 5.0 | 53.8 ± 2.9 | inhibitors of the expression of hrpA |
| O=C(O)CCc1ccccc1 [Hydrocinnamic acid] | 13.7 ± 1.0 | 200.3 ± 35.8 | 213.5 ± 18.9 | – |
| COC(=O)/C=C/c1ccccc1 [Methyl trans-cinnamate] | 9.7 ± 0.1 | 135.8 ± 8.1 | 219.2 ± 14.5 | – |
| O=C(O)COc1ccccc1 [Phenoxyacetic acid] | 18.0 ± 3.1 | 222.7 ± 64.3 | 205.7 ± 11.8 | – |
| O=C(O)/C=C/c1cccc(O)c1 [m-Coumaric acid] | 12.1 ± 0.0 | 133.0 ± 38.2 | 203.3 ± 9.6 | – |
| O=C(O)/C=C/c1cccnc1 [trans-3-(3-Pyridyl)acrylic acid] | 13.1 ± 0.4 | 184.9 ± 35.6 | 204.0 ± 16.8 | – |
| O=C(O)/C=C/c1c[nH]c2ccccc12 [trans-3-indoleacrylic acid] | 7.9 ± 0.2 | 23.9 ± 1.3 | 121.0 ± 6.2 | – |
